Tests used:
[1] = tested on: Phosphatidylinositol 4,5-bisphosphate 3-kinase catalytic subunit alpha isoform (Homo sapiens), P42336 [H1047Y]; test: Inhibition of human partial length PIK3CA H1047Y mutant (R108 to N1068 residues) expressed in mammalian expression system assessed as residual activity at 1 uM by Kinomescan method relative to control
[2] = molecular target: Serine/threonine-protein kinase Nek6 (Homo sapiens) (UniProt Q9HC98); test: Inhibition of wild-type human full length NEK6 (M8 to T313 residues) expressed in bacterial expression system assessed as residual activity at 1 uM by Kinomescan method relative to control
[3] = molecular target: Serine/threonine-protein kinase MAK (Homo sapiens) (UniProt P20794); test: Inhibition of wild-type human partial length MAK (M1 to P314 residues) expressed in bacterial expression system assessed as residual activity at 1 uM by Kinomescan method relative to control
Serine/threonine-protein kinase MAK (Homo sapiens), sequence (P20794 whole entry, the tested form may be a part): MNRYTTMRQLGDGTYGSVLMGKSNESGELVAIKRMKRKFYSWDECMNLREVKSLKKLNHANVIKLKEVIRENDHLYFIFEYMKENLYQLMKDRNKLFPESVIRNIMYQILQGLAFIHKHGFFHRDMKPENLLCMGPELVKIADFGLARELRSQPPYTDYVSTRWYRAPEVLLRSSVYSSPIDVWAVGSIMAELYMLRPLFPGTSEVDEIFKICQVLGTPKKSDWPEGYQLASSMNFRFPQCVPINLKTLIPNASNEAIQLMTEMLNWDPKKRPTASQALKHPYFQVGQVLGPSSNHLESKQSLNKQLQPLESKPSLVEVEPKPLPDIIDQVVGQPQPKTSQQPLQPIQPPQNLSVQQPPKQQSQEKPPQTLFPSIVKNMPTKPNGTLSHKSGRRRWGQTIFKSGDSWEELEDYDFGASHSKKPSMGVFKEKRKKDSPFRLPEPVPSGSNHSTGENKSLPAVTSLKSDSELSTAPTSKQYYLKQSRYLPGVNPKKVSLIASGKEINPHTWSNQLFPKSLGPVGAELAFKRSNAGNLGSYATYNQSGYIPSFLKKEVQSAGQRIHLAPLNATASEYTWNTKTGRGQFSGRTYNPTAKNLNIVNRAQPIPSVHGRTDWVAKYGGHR

[4] = molecular target: Serine/threonine-protein kinase TAO3 (Homo sapiens) (UniProt Q9H2K8); test: Inhibition of wild-type human partial length TAOK3 (M1 to T316 residues) expressed in mammalian expression system assessed as residual activity at 1 uM by Kinomescan method relative to control
[5] = molecular target: Serine/threonine-protein kinase DCLK2 (Homo sapiens) (UniProt Q8N568); test: Inhibition of wild-type human partial length DCAMKL2 (K273 to V664 residues) expressed in bacterial expression system assessed as residual activity at 1 uM by Kinomescan method relative to control
[6] = molecular target: Serine/threonine-protein kinase 33 (Homo sapiens) (UniProt Q9BYT3); test: Inhibition of wild-type human full length STK33 (M1 to L514 residues) expressed in bacterial expression system assessed as residual activity at 1 uM by Kinomescan method relative to control
Serine/threonine-protein kinase 33 (Homo sapiens), sequence (Q9BYT3 whole entry, looked up, the tested form may be a part): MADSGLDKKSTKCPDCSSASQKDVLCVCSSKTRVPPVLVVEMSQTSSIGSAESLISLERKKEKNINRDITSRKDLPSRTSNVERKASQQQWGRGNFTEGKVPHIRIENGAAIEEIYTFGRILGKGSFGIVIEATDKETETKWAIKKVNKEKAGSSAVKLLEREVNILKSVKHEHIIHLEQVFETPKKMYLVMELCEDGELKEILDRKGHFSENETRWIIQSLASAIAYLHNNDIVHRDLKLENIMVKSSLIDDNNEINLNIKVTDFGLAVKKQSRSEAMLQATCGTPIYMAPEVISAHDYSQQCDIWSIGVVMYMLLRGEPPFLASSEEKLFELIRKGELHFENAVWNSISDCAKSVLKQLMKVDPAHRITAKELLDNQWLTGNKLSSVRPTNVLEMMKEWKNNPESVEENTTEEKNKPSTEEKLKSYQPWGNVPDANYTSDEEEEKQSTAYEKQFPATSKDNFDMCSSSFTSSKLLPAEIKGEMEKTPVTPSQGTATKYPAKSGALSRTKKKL

[7] = molecular target: Ribosomal protein S6 kinase alpha-1 (Homo sapiens) (UniProt Q15418); test: Inhibition of wild-type human partial length C-terminal RSK1 kinase domain 2 (P360 to L681 residues) expressed in bacterial expression system assessed as residual activity at 1 uM by Kinomescan method relative to control
Ribosomal protein S6 kinase alpha-1 (Homo sapiens), sequence (Q15418 whole entry, the tested form may be a part): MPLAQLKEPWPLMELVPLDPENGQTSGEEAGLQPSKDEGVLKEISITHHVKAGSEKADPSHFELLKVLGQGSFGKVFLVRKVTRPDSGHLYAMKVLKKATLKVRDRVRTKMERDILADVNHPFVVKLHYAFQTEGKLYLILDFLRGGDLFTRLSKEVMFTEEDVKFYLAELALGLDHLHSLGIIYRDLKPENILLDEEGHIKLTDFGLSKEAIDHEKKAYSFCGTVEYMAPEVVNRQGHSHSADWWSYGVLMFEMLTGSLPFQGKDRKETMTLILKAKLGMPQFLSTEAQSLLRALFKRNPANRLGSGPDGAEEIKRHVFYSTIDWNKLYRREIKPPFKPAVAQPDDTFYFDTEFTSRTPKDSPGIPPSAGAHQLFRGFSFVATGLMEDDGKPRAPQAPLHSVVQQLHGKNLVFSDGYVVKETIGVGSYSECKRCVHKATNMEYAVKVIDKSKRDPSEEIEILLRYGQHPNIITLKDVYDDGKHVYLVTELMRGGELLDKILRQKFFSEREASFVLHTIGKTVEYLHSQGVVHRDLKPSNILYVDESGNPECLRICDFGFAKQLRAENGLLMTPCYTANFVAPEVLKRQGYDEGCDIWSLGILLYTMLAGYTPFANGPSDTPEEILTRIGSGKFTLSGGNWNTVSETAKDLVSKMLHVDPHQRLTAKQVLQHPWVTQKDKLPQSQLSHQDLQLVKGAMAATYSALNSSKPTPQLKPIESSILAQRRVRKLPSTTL

[8] = tested on: Tyrosine-protein kinase ABL1 (Homo sapiens), P00519 [E255K]; test: Inhibition of human phosphorylated ABL1 E255K mutant (S229 to K512 residues) expressed in mammalian expression system assessed as residual activity at 1 uM by Kinomescan method relative to control
[9] = molecular target: Ribosomal protein S6 kinase beta-1 (Homo sapiens) (UniProt P23443); test: Inhibition of wild-type human partial length S6K1 (M1 to S421 residues) expressed in mammalian expression system assessed as residual activity at 1 uM by Kinomescan method relative to control
Ribosomal protein S6 kinase beta-1 (Homo sapiens), sequence (P23443 whole entry, looked up, the tested form may be a part): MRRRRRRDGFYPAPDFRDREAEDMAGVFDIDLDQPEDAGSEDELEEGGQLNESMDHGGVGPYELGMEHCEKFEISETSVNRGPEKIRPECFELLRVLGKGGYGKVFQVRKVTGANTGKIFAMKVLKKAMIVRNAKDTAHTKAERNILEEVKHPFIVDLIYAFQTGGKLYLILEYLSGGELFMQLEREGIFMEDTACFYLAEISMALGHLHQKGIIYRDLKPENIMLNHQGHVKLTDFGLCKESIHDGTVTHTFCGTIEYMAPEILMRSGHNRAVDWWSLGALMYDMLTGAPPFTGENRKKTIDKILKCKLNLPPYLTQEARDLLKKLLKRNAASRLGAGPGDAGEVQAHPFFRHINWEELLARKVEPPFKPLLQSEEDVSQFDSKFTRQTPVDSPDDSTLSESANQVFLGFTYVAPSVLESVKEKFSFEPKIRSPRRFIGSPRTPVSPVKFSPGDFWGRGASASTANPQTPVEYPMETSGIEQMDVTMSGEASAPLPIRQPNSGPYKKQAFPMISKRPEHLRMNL

[10] = molecular target: Activin receptor type-2B (Homo sapiens) (UniProt Q13705); test: Inhibition of wild-type human ACVR2B (H169 to D504 residues) expressed in bacterial expression system assessed as residual activity at 1 uM by Kinomescan method relative to control
[11] = molecular target: Serine/threonine-protein kinase PknB (Mycobacterium tuberculosis) (UniProt P9WI81); test: Inhibition of wild-type Mycobacterium tuberculosis H37Rv ATCC 25618 partial length PKNB (M1 to G279 residues) expressed in mammalian expression system assessed as residual activity at 1 uM by Kinomescan method relative to control
[12] = molecular target: Serine/threonine-protein kinase PAK 4 (Homo sapiens) (UniProt O96013); test: Inhibition of wild-type human partial length PAK4 (Q144 to R438 residues) expressed in bacterial expression system assessed as residual activity at 1 uM by Kinomescan method relative to control
[13] = molecular target: Hepatocyte growth factor receptor (Homo sapiens) (UniProt P08581); test: Inhibition of wild-type human partial length MET (D1010 to S1367 residues) expressed in bacterial expression system assessed as residual activity at 1 uM by Kinomescan method relative to control
[14] = molecular target: Dual specificity protein kinase CLK3 (Homo sapiens) (UniProt P49761); test: Inhibition of wild-type human full length CLK3 (M1 to R490 residues) expressed in bacterial expression system assessed as residual activity at 1 uM by Kinomescan method relative to control
[15] = tested on: Receptor-type tyrosine-protein kinase FLT3 (Homo sapiens), P36888 [N841I]; test: Inhibition of human partial length FLT3 N841I mutant (V592 to Y969 residues) expressed in bacterial expression system assessed as residual activity at 1 uM by Kinomescan method relative to control
[16] = molecular target: Casein kinase II subunit alpha (Homo sapiens) (UniProt P68400); test: Inhibition of wild-type human full length CSNK2A1 (M1 to Q391 residues) expressed in mammalian expression system assessed as residual activity at 1 uM by Kinomescan method relative to control
[17] = molecular target: Tyrosine-protein kinase Fgr (Homo sapiens) (UniProt P09769); test: Inhibition of wild-type human partial length FGR (L233 to T529 residues) expressed in bacterial expression system assessed as residual activity at 1 uM by Kinomescan method relative to control
[18] = molecular target: Tyrosine-protein kinase Fyn (Homo sapiens) (UniProt P06241); test: Inhibition of wild-type human partial length FYN (T243 to L534 residues) expressed in bacterial expression system assessed as residual activity at 1 uM by Kinomescan method relative to control
Tyrosine-protein kinase Fyn (Homo sapiens), sequence (P06241 2-537 limits assumed): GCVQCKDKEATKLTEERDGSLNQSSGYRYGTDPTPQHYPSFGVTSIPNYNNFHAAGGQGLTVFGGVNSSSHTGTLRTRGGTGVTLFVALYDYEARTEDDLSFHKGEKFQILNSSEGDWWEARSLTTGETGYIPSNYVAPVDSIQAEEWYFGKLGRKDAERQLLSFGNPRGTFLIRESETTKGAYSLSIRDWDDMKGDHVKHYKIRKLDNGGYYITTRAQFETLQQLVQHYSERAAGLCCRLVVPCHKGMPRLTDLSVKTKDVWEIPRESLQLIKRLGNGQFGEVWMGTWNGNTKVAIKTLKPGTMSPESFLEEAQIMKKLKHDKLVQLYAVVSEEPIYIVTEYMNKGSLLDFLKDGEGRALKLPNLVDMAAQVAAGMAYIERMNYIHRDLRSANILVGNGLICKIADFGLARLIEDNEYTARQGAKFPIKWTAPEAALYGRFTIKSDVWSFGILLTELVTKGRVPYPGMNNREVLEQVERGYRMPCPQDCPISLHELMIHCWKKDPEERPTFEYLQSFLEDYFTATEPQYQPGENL

[19] = molecular target: Activin receptor type-1 (Homo sapiens) (UniProt Q04771); test: Inhibition of wild-type human ACVR1 (C188 to C509 residues) expressed in bacterial expression system assessed as residual activity at 1 uM by Kinomescan method relative to control
[20] = molecular target: Serine/threonine-protein kinase ULK1 (Homo sapiens) (UniProt O75385); test: Inhibition of wild-type human partial length ULK1 (M1 to T309 residues) expressed in mammalian expression system assessed as residual activity at 1 uM by Kinomescan method relative to control
[21] = molecular target: Myosin-IIIa (Homo sapiens) (UniProt Q8NEV4); test: Inhibition of wild-type human partial length MYO3A (M1 to K338 residues) expressed in bacterial expression system assessed as residual activity at 1 uM by Kinomescan method relative to control
[22] = tested on: Receptor-type tyrosine-protein kinase FLT3 (Homo sapiens), P36888 [R834Q]; test: Inhibition of human partial length FLT3 R834Q mutant (V592 to Y969 residues) expressed in mammalian expression system assessed as residual activity at 1 uM by Kinomescan method relative to control
[23] = molecular target: Ribosomal protein S6 kinase alpha-6 (Homo sapiens) (UniProt Q9UK32); test: Inhibition of wild-type human partial length N-terminal RSK4 kinase domain 1 (M1 to E397 residues) expressed in mammalian expression system assessed as residual activity at 1 uM by Kinomescan method relative to control
[24] = molecular target: Tyrosine-protein kinase ABL2 (Homo sapiens) (UniProt P42684); test: Inhibition of wild-type human ABL2 (A248 to G542 residues) expressed in bacterial expression system assessed as residual activity at 1 uM by Kinomescan method relative to control
[25] = molecular target: Mitogen-activated protein kinase kinase kinase kinase 2 (Homo sapiens) (UniProt Q12851); test: Inhibition of wild-type human partial length MAP4K2 (M1 to G318 residues) expressed in mammalian expression system assessed as residual activity at 1 uM by Kinomescan method relative to control
Mitogen-activated protein kinase kinase kinase kinase 2 (Homo sapiens), sequence (Q12851 whole entry, the tested form may be a part): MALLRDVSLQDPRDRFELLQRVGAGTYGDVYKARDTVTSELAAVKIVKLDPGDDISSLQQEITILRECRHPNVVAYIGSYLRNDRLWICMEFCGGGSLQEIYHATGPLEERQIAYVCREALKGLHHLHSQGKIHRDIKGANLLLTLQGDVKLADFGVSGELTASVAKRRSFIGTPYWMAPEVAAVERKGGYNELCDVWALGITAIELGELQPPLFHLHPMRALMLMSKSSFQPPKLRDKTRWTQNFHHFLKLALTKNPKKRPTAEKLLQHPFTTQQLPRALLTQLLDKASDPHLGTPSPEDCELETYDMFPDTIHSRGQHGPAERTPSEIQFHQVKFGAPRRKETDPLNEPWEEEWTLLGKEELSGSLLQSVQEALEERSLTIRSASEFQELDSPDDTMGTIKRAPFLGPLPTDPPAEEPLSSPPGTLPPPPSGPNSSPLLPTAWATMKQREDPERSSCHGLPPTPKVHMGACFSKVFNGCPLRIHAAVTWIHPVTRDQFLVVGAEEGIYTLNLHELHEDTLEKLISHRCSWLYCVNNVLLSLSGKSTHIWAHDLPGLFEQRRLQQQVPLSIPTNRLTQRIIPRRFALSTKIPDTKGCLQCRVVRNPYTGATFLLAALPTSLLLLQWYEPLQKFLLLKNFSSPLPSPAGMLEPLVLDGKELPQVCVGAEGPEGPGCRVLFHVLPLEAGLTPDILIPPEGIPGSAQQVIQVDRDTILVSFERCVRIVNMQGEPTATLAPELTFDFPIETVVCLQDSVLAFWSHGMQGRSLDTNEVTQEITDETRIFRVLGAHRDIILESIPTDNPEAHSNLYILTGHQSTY

Phosphatidylinositol 4,5-bisphosphate 3-kinase catalytic subunit alpha isoform (Homo sapiens), P42336 [H1047Y], sequence (P42336 whole entry H1047Y, the tested form may be a part, canonical isoform): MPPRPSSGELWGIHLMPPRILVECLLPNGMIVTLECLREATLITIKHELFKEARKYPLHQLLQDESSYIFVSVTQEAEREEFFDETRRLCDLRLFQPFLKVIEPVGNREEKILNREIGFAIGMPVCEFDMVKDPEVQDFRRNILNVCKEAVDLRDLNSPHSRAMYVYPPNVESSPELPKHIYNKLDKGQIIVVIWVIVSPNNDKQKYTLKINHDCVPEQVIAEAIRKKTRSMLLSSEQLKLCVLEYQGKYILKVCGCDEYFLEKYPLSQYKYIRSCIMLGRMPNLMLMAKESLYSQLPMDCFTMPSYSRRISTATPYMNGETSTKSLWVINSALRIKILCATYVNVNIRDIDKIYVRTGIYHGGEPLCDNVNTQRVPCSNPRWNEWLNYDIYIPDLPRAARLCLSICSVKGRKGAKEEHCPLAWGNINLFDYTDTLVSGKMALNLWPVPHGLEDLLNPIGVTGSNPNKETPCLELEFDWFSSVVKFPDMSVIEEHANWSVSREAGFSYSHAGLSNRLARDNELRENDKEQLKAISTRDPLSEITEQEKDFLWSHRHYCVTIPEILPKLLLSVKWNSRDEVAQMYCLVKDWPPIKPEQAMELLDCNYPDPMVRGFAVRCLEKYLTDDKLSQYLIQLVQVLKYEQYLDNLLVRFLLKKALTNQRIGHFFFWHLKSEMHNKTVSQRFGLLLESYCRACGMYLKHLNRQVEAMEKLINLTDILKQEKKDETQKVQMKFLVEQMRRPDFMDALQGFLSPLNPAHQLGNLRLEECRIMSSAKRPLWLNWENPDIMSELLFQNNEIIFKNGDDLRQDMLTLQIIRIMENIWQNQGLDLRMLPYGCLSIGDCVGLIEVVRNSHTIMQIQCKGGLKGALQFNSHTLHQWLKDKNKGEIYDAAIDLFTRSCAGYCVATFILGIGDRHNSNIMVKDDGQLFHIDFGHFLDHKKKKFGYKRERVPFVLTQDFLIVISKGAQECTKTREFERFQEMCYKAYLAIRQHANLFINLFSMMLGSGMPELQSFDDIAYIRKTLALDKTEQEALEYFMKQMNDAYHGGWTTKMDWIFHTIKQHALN

Work on `C=CC(=O)Nc1cc(Nc2cc(-c3cccc(NC(=O)c4ccc(C(C)(C)C)cc4)c3C)cn(C)c2=O)ccc1C(=O)N1CCOCC1` yielded an Activity [1] of 91%, an Activity [2] of 98% and an Activity [3] of 84%. For the same compound, the Activity [4] was 94%, the Activity [5] was 89% and the Activity [6] was 100%. The Activity [7] was 100%, the Activity [8] was 100% and the Activity [9] was 100%. The Activity [10] was 73%, the Activity [11] was 100% and the Activity [12] was 94%. It also gave an Activity [13] of 96%, an Activity [14] of 98% and an Activity [15] of 100%. It also gave an Activity [16] of 100%, an Activity [17] of 77% and an Activity [18] of 73%. It also gave an Activity [19] of 97%, an Activity [20] of 100% and an Activity [21] of 95%. For the same compound, the Activity [22] was 91%, the Activity [23] was 90% and the Activity [24] was 100%. For the same compound, the Activity [25] was 94%.

— ChEMBL document CHEMBL4024706 (Eur J Med Chem, 2017)
